In publication PMC4861903, “Synthesis of a highly water-soluble acacetin prodrug for treating experimental atrial fibrillation in beagle dogs” (Scientific Reports, 2016):
Like-named read-outs stand apart in the source and are kept apart here.

Key:
[1] = Ex vivo bioconversion of acacetin prodrug in rat liver microsome; format: in vitro ADME; conditions: 37 °C, n = 3
Procedure: The ex vivo bioconversion of acacetin prodrug was determined in rat plasma or rat hepatic microsome that contains high content alkaline phosphatase, as described previously[30] and in Supplemental Materials. The in vivo bioconversion of acacetin prodrug was determined in beagle dogs as described in Supplemental Materials. […]
Bioconversion of acacetin prodrug was also determined in rat hepatic microsomes containing high content alkaline phosphatase,5 as described previously.6 Sprague-Dawley rat liver microsomes were purchased from Invitrogen (Hong Kong, China). The reaction mixture was prepared in 50 mM Tris-HCl buffer (pH = 7.4) with 1 mM NADPH (nicotinamide adenine dinucleotide phosphate) and 0.5 mg/mL (total protein) microsomes. Prodrug solutions were added to the microsomes reaction mixture with a final concentration of 5 µg/mL. The reaction solution was incubated in a water bath at 37℃ and shaken at 60 rpm for 1 h. The samples were collected at 0, 1, 2, 15, 30 and 60 min. The reaction was terminated by adding 200 μL cold methanol containing internal standard (pentamethylquercetin, 50 ng/ml). After centrifugation at 12000 g for 30 min, the supernatant was immediately analyzed by HPLC. […]

[2] = test system: ICR mice; test: Acute toxicity assessment in ICR mice, single i.v. dose; format: in vivo
Procedure: (§1) The acute toxicity of acacetin prodrug was assessed in ICR mice (weighing 18~22 g) as described in Supplemental Materials, and the LD50 was calculated by the Bliss method. […]
(§2) Acute toxicity assessment of acacetin prodrug
(§3) The acute toxicity of acacetin prodrug was assessed in ICR mice (weighing 18~22 g) provided by the Laboratory Animal Center of Hong Kong University (Hong Kong, China) and maintained under controlled temperature conditions (23 °C), with a constant 12 h light-dark cycle and free access to food and water. Sixty ICR mice (male, 30; female, 30) were stratified by weight and randomly assigned to six groups: (n = 10 in each group, 5 male and 5 female).
(§4) Acacetin prodrug dissolved in 5% glucose was intravenously administered at 900, 810, 765, 720, 630 and 540 mg/kg through tail vein, respectively. The animals were closely observed for symptoms and mortality in 24 h. All of the surviving animals were euthanized at the end of the study, and their vital organs were individually observed for gross pathology by necropsy, and the LD50 was calculated by the Bliss method.11, 12

[3] = as above; format: in vivo; conditions: both sexes, ICR, mouse, in vivo, iv, Bliss method
Procedure: as §1, §2, §3, §4

[4] = target: T1, hKv1.5 current (IKur, KCN5A) (Homo sapiens, UniProt P22460); test: Whole-cell patch clamp of hKv1.5 current in HEK 293 cells; format: cell-based; conditions: 30 μM, at +50 mV, n = 5
T1 construct: expressed in transfected cells
Procedure: Whole-cell currents of hKv1.5 and hKv4.3 were recorded in established HEK 293 cell lines stably expressing hKv1.5 (KCN5A) and hKv4.3 (KCND3) and IKACh was determined in isolated rat atrial myocytes as described previously[12][31][32] and in Supplemental Materials. […]
Effects of acacetin prodrug on cardiac potassium currents
Whole-cell currents of hKv1.5 and hKv4.3 were recorded in established HEK 293 cell lines stably expressing hKv1.5 (KCN5A) and hKv4.3 (KCND3).1, 2 The cells were cultured in Dulbecco’s modified eagle’s medium (DMEM, Invitrogen, Hong Kong) supplemented with 10% fetal bovine serum and 400 µg/mL G418. Cells on a coverslip were transferred to an open cell chamber (0.5 ml) mounted on the stage of an inverted microscope and superfused with Tyrode’s solution at 2 mL/min. The whole cell patch-clamp technique was used as described previously.1, 2 The whole-cell membrane currents were measured using an EPC-10 amplifier and Pulse software (Heka Elektronik, Lambrecht, Germany). Borosilicate glass electrodes (1.2-mm OD) were pulled with a Brown/Flaming puller (model P-97, Sutter Instrument, Nato, CA) and had resistances of 1.5~2.5 MΩ when filled with the pipette solution. A 3-M KCl agar bridge was used as the reference electrode. The tip potential was zeroed before the patch pipette contacted the cell. […]

[5] = target: T2, hERG channels (Homo sapiens, UniProt Q12809); test: hERG current in HEK 293 cells; format: cell-based; conditions: 30 μM, n = 4, data not shown
T2 construct: expressed in transfected cells; host or cells: HEK 293
T2 sequence (Q12809 whole entry): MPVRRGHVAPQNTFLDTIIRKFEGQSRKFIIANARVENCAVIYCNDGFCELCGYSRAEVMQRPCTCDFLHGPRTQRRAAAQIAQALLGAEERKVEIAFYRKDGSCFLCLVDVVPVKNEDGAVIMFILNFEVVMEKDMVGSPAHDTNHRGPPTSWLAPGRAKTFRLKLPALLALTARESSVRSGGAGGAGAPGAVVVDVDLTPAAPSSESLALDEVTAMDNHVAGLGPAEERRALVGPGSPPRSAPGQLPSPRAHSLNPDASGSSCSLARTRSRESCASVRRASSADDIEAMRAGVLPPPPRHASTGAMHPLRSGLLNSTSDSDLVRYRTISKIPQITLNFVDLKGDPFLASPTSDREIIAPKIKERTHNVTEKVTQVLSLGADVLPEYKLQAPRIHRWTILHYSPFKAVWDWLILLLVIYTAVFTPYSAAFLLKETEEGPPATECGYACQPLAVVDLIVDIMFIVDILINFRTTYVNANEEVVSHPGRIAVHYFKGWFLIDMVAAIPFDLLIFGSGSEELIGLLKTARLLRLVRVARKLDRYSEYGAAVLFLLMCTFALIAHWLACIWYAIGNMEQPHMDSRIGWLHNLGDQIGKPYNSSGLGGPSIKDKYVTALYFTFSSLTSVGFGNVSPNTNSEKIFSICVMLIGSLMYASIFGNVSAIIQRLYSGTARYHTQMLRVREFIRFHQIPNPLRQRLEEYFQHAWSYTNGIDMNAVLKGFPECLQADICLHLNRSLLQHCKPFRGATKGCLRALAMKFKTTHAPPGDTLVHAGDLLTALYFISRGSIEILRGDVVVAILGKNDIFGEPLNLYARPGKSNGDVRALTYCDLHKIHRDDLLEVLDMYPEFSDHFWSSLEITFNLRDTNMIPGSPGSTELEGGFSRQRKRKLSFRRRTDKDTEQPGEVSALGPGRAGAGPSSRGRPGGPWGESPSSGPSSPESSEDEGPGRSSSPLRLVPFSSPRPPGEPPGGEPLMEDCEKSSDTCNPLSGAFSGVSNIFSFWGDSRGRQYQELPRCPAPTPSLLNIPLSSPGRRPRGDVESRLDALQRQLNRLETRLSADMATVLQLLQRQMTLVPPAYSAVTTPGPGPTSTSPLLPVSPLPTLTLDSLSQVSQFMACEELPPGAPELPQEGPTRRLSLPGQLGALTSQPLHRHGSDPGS

T1 sequence (P22460 whole entry): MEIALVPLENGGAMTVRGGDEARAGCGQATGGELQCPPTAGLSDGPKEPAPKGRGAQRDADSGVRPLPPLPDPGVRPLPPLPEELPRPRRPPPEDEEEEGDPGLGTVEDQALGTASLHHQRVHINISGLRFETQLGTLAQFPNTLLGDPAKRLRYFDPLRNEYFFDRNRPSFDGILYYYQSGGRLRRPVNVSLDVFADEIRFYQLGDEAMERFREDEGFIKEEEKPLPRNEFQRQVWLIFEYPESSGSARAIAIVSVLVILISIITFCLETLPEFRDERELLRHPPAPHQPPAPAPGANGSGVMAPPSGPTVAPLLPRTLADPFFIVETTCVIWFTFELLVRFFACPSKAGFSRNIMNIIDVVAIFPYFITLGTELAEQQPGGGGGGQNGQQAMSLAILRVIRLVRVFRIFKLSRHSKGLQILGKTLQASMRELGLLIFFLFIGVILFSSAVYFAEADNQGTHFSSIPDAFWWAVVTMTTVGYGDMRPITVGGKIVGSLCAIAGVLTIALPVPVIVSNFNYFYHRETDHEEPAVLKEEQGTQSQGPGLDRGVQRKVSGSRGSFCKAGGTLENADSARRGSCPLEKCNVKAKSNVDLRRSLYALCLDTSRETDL

Structure (SMILES): COc1ccc(-c2cc(=O)c3c(O)cc(OP(=O)([O-])[O-])cc3o2)cc1.[Na+].[Na+] [acacetin prodrug, phosphate sodium salt of acacetin]
- prodrug converted into acacetin ([1]; 1 min incubation): 60%
- prodrug converted into acacetin ([1]; 30 min incubation): 100%
- mortality ([2]; i.v. dose of 900 mg/kg): all animals died
- survival within 24 h ([2]; i.v. dose of up to 540 mg/kg): All animals survived
- adverse effects or signs of toxicity in the surviving animals ([2]; i.v., 24 h observation): No significant adverse effects or signs of toxicity
- necropsy of the surviving mice ([2]; i.v., end of study): no gross pathological alteration
- LD50 ([2]; intravenous (tail vein), single dose, Bliss method): 721 mg/kg
- LD50 at 24 h ([3]; read-out: LD50 with 95% confidence level): 685 to 760 mg/kg
- LD50 at 24 h ([3]; intravenous (tail vein), single dose, read-out: LD50): 722 mg/kg
- inhibition of hKv1.5 current [4]: no significant inhibition
- effect on hERG channels [5]: no such effect
